One compound from patent publication US6441027B1, “Method of regulating the female reproductive system through angiogenesis inhibitors” (Children's Medical Center Corporation, priority 1996, dated 2002) can be followed below.

Where two headings read alike, the source gives them in different places.

Data set [1] concerns inseminated C57BL/6 mice. In kind it is in vivo, mouse. An excerpt: C57BL/6 male and female mice greater than seven weeks old were obtained from Takonic (Germantown, N.Y.). The mice were acclimated for at least five days prior to mating and housed in a twelve hour on and twelve hour off light schedule. The mice were mated in the evenings and vaginal plugs were checked for the next morning. Mating in mice is normally detected by the occurrence of vaginal plugs, which are formed by a mixture of the secretions of the vesicular and coagulating glands of the male and usually fill the vagina from cervix to vulva. The day of plugging was labeled Embryonic day 0 (E0). All animal studies were conducted according to the protocols approved by the Animal Ethics Committee of Children's Hospital. Plugged female mice were randomized and received either AGM-1470 30 mg/kg s.c. or saline on E1, 7, or 14. The dependence of female reproductive system on angiogenesis was examined by treating sexually mature inseminated and cycling mice with selective angiogenesis inhibitor AGM-1470.
Mice were sacrificed on either E6, 9, 13 or 18 (one day prior to term gestation). Fetal viability was assessed and statistical analysis was performed with a Fisher's Exact Test.

Data set [2] concerns bFGF induced neovascularization. Briefly: Mouse corneal micropocket model, bFGF pellet. In kind it is in vivo. The conditions noted are these: mouse cornea, n=10/group, p<0.001. As for the experimental part:
To confirm that angiogenesis was being inhibited, AGM-1470 was tested in vivo. A mouse corneal micropocket model was used which was recently developed to model tumor angiogenesis. Pellets of bFGF or VEGF were implanted in the mouse cornea resulting in aggressive neovascularization. AGM-1470 inhibited the amount of bFGF or VEGF induced neovascularization by 47% or 62% respectively (n=10/group p<0.001).

In data set [3] the test system is endometrium. Briefly: Cycling mice, chronic treatment: examination of the uterus. Format: in vivo, mouse. As for the experimental part:
Mice were randomized and received either AGM-1470 30 mg/kg s.c. or saline 0.1 ml s.c. every other day for 16 days (approximately four estrous cycles). On the last of four days of treatment mice were housed with male mice to see if successful mating and conception would occur. On day 16 mice were weighed and sacrificed by cervical dislocation. The ovaries were resected enbloc, fixed in Carnoy's fixative, and embedded in paraffin according to standard histologic techniques. Sections were cut at 6 microns and stained with hematoxylin and eosin.
To determine microvessel density, Carnoy's-fixed tissue sections were pretreated with 2 microgram/ml Proteinase K (Boehringer Mannheim, Mannheim, Germany) at 37° Celsius for 15 minutes before staining with a rabbit polyclonal antibody against mouse factor VIII (Dako, Carpinteria, Calif.). Positive staining was detected by incubating sequentially with a secondary antibody against rabbit conjugated to horseradish peroxidase (Dako) and diaminobenzidine tetrahydrochloride (DAB) (Dako) as a chromagen. Sections were counterstained with methyl green (Schmid & Co., Stuttgart, Germany) and mounted in Permount (Fisher, Fair Lawn, N.J.). Microvessel density was determined by light microscopy. Each count was expressed as the number of microvessels identified within a selected field. Ten fields per section were counted.
To determine the rate of cellular proliferation, staining for proliferating cell nuclear antigen (PCNA) was performed. Carnoy's-fixed sections were pretreated in target unmasking fluid (Signet Laboratories, Dedham, Mass.) for 10 minutes at 90° for antigen retrieval. Immunohistochemical staining was performed with an anti-PCNA murine monoclonal antibody (Signet). Positive staining was detected by using horse radish peroxidase-conjugated secondary (Dako) and tertiary (Dako) antibodies, and DAB as a chromagen. The PCNA labeling index was determined by counting the percentage of stained cells under light microscopy within selected 630× fields. A minimum of 1,000 cells were counted for each specimen.
For staining of apoptotic cells, Carnoy's-fixed sections were treated according to the protocol of the Apoptag manufacturer (Oncor, Gaithersburg, Md.) except the pretreatment step with Proteinase K was omitted. After TdT labeling of specimens, positive staining was detected with a peroxidase-labeled antibody against deoxyuridine peroxidase substrate. Sections were counterstained as described above. The apoptotic index was determined by counting the percentage of stained cells under light microscopy within selected 630× fields. A minimum of 1,000 cells was counted for each specimen.
In experiments with AGM-1470 treatment of pregnant mice, transverse sections through embryos contained within the uterus were stained. Microvessels density was determined at the intersite endometrium and PCNA was determined in the decidual stroma. In experiments with AGM-1470 treatment of non-pregnant mice, transverse sections through the endometrium were stained for factor VIII, PCNA or apoptotic cells at the level of the endometrial lumen at its widest diameter. Statistical analysis was performed with ANOVA on ranked data to account for the expected variation of endometrial angiogenesis and glandular proliferation in the control due to different phases of the estrous cycle.

Data set [4] relates to female C57BL/6 mice. In kind it is in vivo, mouse. As for the experimental part:
Group housed female C57BL/6 mice were treated with a single injection of AGM-1470 (30 mg/kg, s.c.) and paired with male breeders at various times after treatment. Treatment groups are designated as the number of days between plugging and treatment. The 6 control groups are combined and expressed as the mean±SD. The number of matings in per group is listed below each labeled group.
The experiment was designed to detect how long before mating a single dose of AGM-1470 might be effective. Sexually mature female mice were treated with a single dose of AGM-1470 (30 mg/kg, s.c.) up to five days prior to mating [designated E(−5), E(−4), E(−3), E(−2), E(−1), or E0 with the date of plugging being E0]. For treatments on E(−5) through E(−1), group-housed female mice were injected with AGM-1470 and then individually paired with male breeders at varying times after injection. For E0 treatment, females were paired with males and then plugged females were injected. Pregnancies were monitored by maternal weights and allowed to go to term. The contraceptive efficacy of a single dose of AGM-1470 on each of these days, calculated by the percentage of matings resulting in any viable deliveries […]. The contraceptive efficacy of a single dose of AGM-1470 on each of these days, expressed as the percentage of matings resulting in viable deliveries is illustrated in FIG. 8.

Setting [5] is: 30 mg/kg every other day for 16 days.
Where [6] appears, read: 30 mg/kg every other day for 16 days, n=6.
The mark [7] stands for this setting: 30 mg/kg every other day for 16 days, vs control.

Regarding `CO[C@@H]1[C@H](OC(=O)NC(=O)CCl)CC[C@]2(CO2)[C@H]1[C@@]1(C)O[C@@H]1CC=C(C)C` [AGM-1470, O-chloroacetylcarbamoyl fumagillol], in data set [1] (30 mg/kg single dose), the “toxicity to the pregnant mothers” value was “no signs of toxicity”. In addition, the birth defects result in data set [1] (drug given to pregnant mice during pregnancy) is “birth defects were not documented”. Moreover, the “fetal resorption on E18” value in data set [1] (single dose 30 mg/kg s.c. on E1 (pre-implantation), n=69 embryos) is on record as 100%. Moreover, the “fetal resorption on E18” value in data set [1] (single dose 30 mg/kg s.c. on E7 (post-implantation), n=36) was 100%. In data set [1] (single dose 30 mg/kg s.c. on E14, n=46), the litters entry is “normal litters”. Besides, the “inhibition of bFGF induced neovascularization” value in data set [2] is reported as 47%. Also, in data set [3] (setting [5]), the “decrease in microvessel density (Factor VIII) vs control” value was found to be 41%, the “decrease in number of proliferating vessels” value is listed as 71%, the “decrease in percentage of proliferating glandular epithelial cells (PCNA)” value is reported as 67% and the “decrease in proliferation rate of endometrial stromal cells (PCNA)” value was determined as 68%. Further, the “number of proliferating vessels” value in data set [3] (30 mg/kg every other day for 16 days, n=5) is on record as 5±2 vessels/X630 field. In addition, in data set [3] (setting [6]), the endometrial glands is 3±2 glands/X250 field, the “percentage of proliferating glandular epithelial cells (PCNA)” value is listed as 10%±3 and the “proliferation rate of endometrial stromal cells (PCNA)” value is 5% ±2. In data set [3] (setting [7]), the “apoptotic index (Apo-Tag staining)” value was “not significantly different” and the uterus thickness result is “consistently thinner”. In addition, the “fewer endometrial glands than control” value in data set [3] (30 mg/kg s.c. every other day for 16 days) was 63%. In addition, the “effect on live births” value in data set [4] (single dose 30 mg/kg s.c. on E0) is listed as “completely block live births”. The “effect on live births” value in data set [4] (single dose 30 mg/kg s.c. on E(-1)) was “completely block live births”. For the same compound, in data set [4] (single dose 30 mg/kg s.c. on E(-2)), the “reduction of percentage of animals with successful pregnancies” value worked out at 80%. For the same compound, in data set [4] (single dose 30 mg/kg s.c. three to five days prior to mating), the frequency of litters entry is “same frequency as controls”. Moreover, the “number of dead births relative to controls” value in data set [4] (single dose 30 mg/kg s.c., any time point E(-5) to E0) is “No differences”. Besides, in data set [4] (single dose 30 mg/kg s.c., treatments on E0, E-1 and E-2 (FIG. 8)), the “percentage of mated animals with viable births” value is reported as “inhibition of viable births”.
